{
  "source": "patent US20210153516A1",
  "about": "“COMPOSITION AND METHOD OF TREATING PLANTS AND PLANT PARTS WITH VOLATILE SPOILAGE ORGANISM CONTROLLING ACTIVES” (AGROFRESH INC., priority 2019, published 2021)",
  "key": {"[1]": {"system": "Penicillium digitatum (Green mold) and Penicillium italicum (Blue mold)", "experiment": "Green mold and Blue mold infection assessment for mandarins after spray treatment", "format": "in vivo", "conditions": "equally mixed mandarins of untreated and treated (spray 60 ml treatment solution per box); 10 days incubation at room temperature", "protocol": "The experiment was conducted by 1) preparing a spray treatment solution by diluting […] concentrated formulation containing 10% w/w volatile compound, 45% w/w propylene glycol, 43.02% w/w isopropanol, 1.8% w/w sorbitan mono-oleate, 0.18% w/w citric acid into 1 L water, 2) spraying a box of mandarins with the use rate of 60 ml treatment solution per box, 3) after air drying of the mandarins, preparing a box of mandarins containing 50% untreated mandarins and 50% treated mandarins, 4) storing the mandarins under 3-5° C. refrigerated conditions for 7 days, and then storing at room temperature with high humidity to incubate for disease observations. Penicillium Digitatum (Green mold) and Penicillium italicum (Blue mold) infection incidence of the mandarins was assessed at 10 days incubation time under room temperature shelf life conditions for both untreated mandarins in isolation and equally mixed untreated and treated mandarins to simulate uneven spray treatment applications."}, "[2]": {"system": "B. cinerea (Botrytis cinerea or Gray mold)", "experiment": "B. cinerea infection assessment for blueberries after thermal fogging (Example 3)", "format": "in vivo", "conditions": "untreated blueberries placed adjacent to treated blueberries one day after treatment, 10 mg active ingredient per kg", "protocol": "(§1) The experiment was conducted by 1) setting up a 4.3 m^3 rectangular plastic tent, 2) placing blueberries in open clamshells in the tent, 3) preparing a foggable formulation by dissolving volatile compound into a solvent mixture containing 50% w/w propylene glycol, 47.8% w/w isopropyl alcohol, 2% w/w sorbitan mono-oleate, and 0.2% of citric acid to achieve about 10% w/w volatile compound, 4) inoculating the blueberries before treatment, 5) applying the formulation through a thermal fogger with set temperature at 200° C. and flow rate of about 70 ml/min, and target use rate of 10 mg active ingredient per kg of blueberries, and 6) storing the blueberries under refrigerated condition of about 4° C. after treatment, and at room temperature to incubate for observation of disease infections.\nB. cinerea (Botrytis cinerea or Gray mold) infection was assessed at 4 and 13 days incubation time for both untreated blueberries in isolation and untreated blueberries placed adjacent to the treated blueberries one day after the treatment."}, "B. cinerea [3]": {"system": "B. cinerea", "experiment": "B. cinerea infection assessment for strawberries after dipping treatment", "format": "in vivo, Botrytis cinerea", "protocol": "The experiment was conducted by 1) preparing a dipping treatment solution by dissolving volatile compound into 20% v/v isopropanol water solution to achieve 10 ppm concentration, 2) pre-inoculate all the strawberries before treatment, 3) dipping strawberries in the prepared solution for 30 seconds, 4) storing the strawberries under refrigerated conditions and at room temperature to incubate for disease observations. B. cinerea infection was assessed at 3 and 5 days incubation time for both untreated strawberries in isolation and untreated strawberries placed adjacent to the treated strawberries."}, "B. cinerea [4]": {"system": "B. cinerea", "experiment": "B. cinerea infection assessment for blueberries after thermal fogging (Example 4)", "format": "in vivo, Botrytis cinerea", "protocol": "as §1\nB. cinerea infection was assessed at 13, 16, and 24 days incubation time under room temperature shelf life conditions for both untreated blueberry in isolation, untreated blueberry placed adjacent to the treated blueberry six days after the treatment, and the treated blueberries."}, "[5]": {"system": "Penicillium digitatum (Green mold) and Penicillium italicum (Blue mold)", "experiment": "Green mold and Blue mold infection assessment for mandarins after dipping treatment", "format": "in vivo", "conditions": "equally mixed mandarins of untreated and treated (dip about 60 seconds); 10 days incubation at room temperature", "protocol": "The experiment was conducted by 1) preparing a dipping treatment solution by diluting 360 ml concentrated formulation containing 10% w/w volatile compound, 45% w/w propylene glycol, 43.02% w/w isopropanol, 1.8% w/w sorbitan mono-oleate, 0.18% w/w citric acid into 60 L water, 2) dipping a box of mandarins into the treatment solution bath for about 60 seconds, 3) after air drying of the mandarins, preparing a box of mandarins containing 50% untreated mandarins and 50% treated mandarins, 4) storing the mandarins under 3-5° C. refrigerated conditions for 7 days, and then storing at room temperature with high humidity to incubate for disease observations. Penicillium digitatum (Green mold) and Penicillium italicum (Blue mold) infection incidence of the mandarins was assessed at 10 days incubation time under room temperature shelf life conditions for both untreated mandarins in isolation and equally mixed untreated and treated mandarins to simulate uneven drench or dip treatment applications."}, "[6]": {"conditions": "treated blueberries, thermal fogging 10 mg active ingredient per kg, 13 days incubation"}, "[7]": {"conditions": "treated blueberries, thermal fogging 10 mg active ingredient per kg, 16 days incubation"}, "[8]": {"conditions": "treated blueberries, thermal fogging 10 mg active ingredient per kg, 24 days incubation"}, "[9]": {"conditions": "untreated blueberries placed adjacent to treated blueberries 6 days after treatment, 13 days incubation"}, "[10]": {"conditions": "untreated blueberries placed adjacent to treated blueberries 6 days after treatment, 16 days incubation"}, "[11]": {"conditions": "untreated blueberries placed adjacent to treated blueberries 6 days after treatment, 24 days incubation"}},
  "data": [
    {"compound": "OB1OCc2cc(F)ccc21", "note": "[5-fluoro-1-hydroxy-3H-2,1-benzoxaborole]", "values": [
      {"measurement": "Green and Gray molds incidence", "setting": "[1]", "result": 0.64, "unit": "%"},
      {"measurement": "B. cinerea incidence", "setting": "[2]; 4 days incubation", "result": 2.6, "unit": "%"},
      {"measurement": "B. cinerea severity", "setting": "[2]; 4 days incubation", "result": 0.2, "unit": "%"},
      {"measurement": "B. cinerea incidence", "setting": "[2]; 13 days incubation", "result": 19.2, "unit": "%"},
      {"measurement": "B. cinerea severity", "setting": "[2]; 13 days incubation", "result": 10.6, "unit": "%"},
      {"measurement": "B. cinerea severity", "setting": "B. cinerea [3]; treated strawberries, dipped 30 seconds in 10 ppm solution, 3 days incubation", "result": 0.0, "unit": "%"},
      {"measurement": "B. cinerea severity", "setting": "B. cinerea [3]; treated strawberries, dipped 30 seconds in 10 ppm solution, 5 days incubation", "result": 0.0, "unit": "%"},
      {"measurement": "B. cinerea severity", "setting": "B. cinerea [3]; untreated strawberries placed adjacent to treated strawberries, 3 days incubation", "result": 5.4, "unit": "%"},
      {"measurement": "B. cinerea severity", "setting": "B. cinerea [3]; untreated strawberries placed adjacent to treated strawberries, 5 days incubation", "result": 43.8, "unit": "%"},
      {"measurement": "B. cinerea incidence", "setting": "B. cinerea [4]; [6]", "result": 2.8, "unit": "%"},
      {"measurement": "B. cinerea severity", "setting": "B. cinerea [4]; [6]", "result": 1.1, "unit": "%"},
      {"measurement": "B. cinerea incidence", "setting": "B. cinerea [4]; [7]", "result": 2.8, "unit": "%"},
      {"measurement": "B. cinerea severity", "setting": "B. cinerea [4]; [7]", "result": 1.1, "unit": "%"},
      {"measurement": "B. cinerea incidence", "setting": "B. cinerea [4]; [8]", "result": 5.6, "unit": "%"},
      {"measurement": "B. cinerea severity", "setting": "B. cinerea [4]; [8]", "result": 3.3, "unit": "%"},
      {"measurement": "B. cinerea incidence", "setting": "B. cinerea [4]; [9]", "result": 16.7, "unit": "%"},
      {"measurement": "B. cinerea severity", "setting": "B. cinerea [4]; [9]", "result": 4.7, "unit": "%"},
      {"measurement": "B. cinerea incidence", "setting": "B. cinerea [4]; [10]", "result": 23.0, "unit": "%"},
      {"measurement": "B. cinerea severity", "setting": "B. cinerea [4]; [10]", "result": 6.2, "unit": "%"},
      {"measurement": "B. cinerea incidence", "setting": "B. cinerea [4]; [11]", "result": 33.3, "unit": "%"},
      {"measurement": "B. cinerea severity", "setting": "B. cinerea [4]; [11]", "result": 15.0, "unit": "%"},
      {"measurement": "Green and Blue mold incidence", "setting": "[5]", "result": 4.1, "unit": "%"}
    ]}
  ]
}
